The text below walks through data of patent US20100298384A1, “NOVEL OXAZOLIDINONE COMPOUNDS AS ANTIINFECTIVE AGENTS” (priority 2006, published 2010).

`CC(=O)NC[C@H]1CN(c2ccc(-c3nc(Cn4cccn4)cs3)c(F)c2)C(=O)O1` [Example 12, N-{3-[3-fluoro-4-(4-pyrazol-1-ylmethyl-thiazol-2-yl)-phenyl]-2-oxo-oxazolidin-5(S)-ylmethyl}-acetamide]: the melting point was in the range of 178 to 180 °C.

Compound `COC(=O)NC[C@H]1CN(c2ccc(-c3nc(Cn4ccnc4)cs3)c(F)c2)C(=O)O1` [Example 33] yielded a melting point of 165 to 167 °C.

The compound `CC(=S)NC[C@H]1CN(c2ccc(-c3nc(Cn4cncn4)cs3)c(F)c2)C(=O)O1` [Example 61, N-{3-[3-fluoro-4-(4-[1,2,4]triazol-1-ylmethyl-thiazol-2-yl)-phenyl]-2-oxo-oxazolidin-5(S)-ylmethyl}-thioacetamide] came in with a melting point of 180 to 182 °C.

Consider `CC(=O)NC[C@H]1CN(c2ccc(-n3cc(Cn4cncn4)cn3)c(F)c2)C(=O)O1` [Example 22, N-{3-[3-fluoro-4-(4-[1,2,4]triazol-1-ylmethyl-pyrazol-1-yl)-phenyl]-2-oxo-oxazolidin-5(S)-ylmethyl}-acetamide], for which the melting point lay in the range of 126 to 127 °C.

On to `COC(=O)NC[C@H]1CN(c2ccc(-n3cnc(Cn4cncn4)c3)c(F)c2)C(=O)O1` [Example 45, Methyl {3-[3-fluoro-4-(4-[1,2,4]-triazol-1-ylmethyl-imidazol-1-yl)-phenyl]-2-oxo-oxazolidin-5-ylmethyl}-carbamate], for which the melting point lay in the range of 184 to 186 °C.

As to `CC(=O)NC[C@H]1CN(c2ccc(-n3cnc(Cn4ccnc4)c3)c(F)c2)C(=O)O1` (stereo in doubt) [Example 24, N-{3-[3-fluoro-4-(4-imidazol-1-ylmethyl-imidazol-1-yl)-phenyl]-2-oxo-oxazolidin-5-ylmethyl}-acetamide], the melting point lay in the range of 180 to 182 °C.

The compound `CC(=S)NC[C@H]1CN(c2ccc(-n3cnc(Cn4ccnc4)c3)c(F)c2)C(=O)O1` (stereo in doubt) [Example 65, N-{3-[3-fluoro-4-(4-imidazol-1-ylmethyl-imidazol-1-yl)-phenyl]-2-oxo-oxazolidin-5-ylmethyl}-thioacetamide] returned a melting point of 160 to 162 °C.

Consider `CC(=S)NC[C@H]1CN(c2ccc(-n3cnc(Cn4cccn4)c3)c(F)c2)C(=O)O1` (stereo in doubt) [Example 66, N-{3-[3-fluoro-4-(4-pyrazol-1-ylmethyl-imidazol-1-yl)-phenyl]-2-oxo-oxazolidin-5-ylmethyl}-thioacetamide], for which the melting point lay within 137 to 139 °C.

`CC(=O)NC[C@H]1CN(c2ccc(-n3cc(Cn4ccnc4)cn3)c(F)c2)C(=O)O1` [Example 18, N-{3-[3-fluoro-4-(4-imidazol-1-ylmethyl-pyrazol-1-yl)phenyl]-2-oxo-oxazolidin-5-(8)-ylmethyl}-acetamide] gave a melting point of 171 to 172 °C.

As to `CCOC(=O)c1cn(Cc2cn(-c3ccc(N4C[C@H](CNC(=O)OC)OC4=O)cc3F)nn2)nc1N` (stereo in doubt) [Example 47, Ethyl 3-amino-1-(1-{2-fluoro-4-[5-(methoxycarbonylamino-methyl)-2-oxo-oxazolidin-3-yl]-phenyl}-1H-[1,2,3]triazol-4-ylmethyl)-1H-pyrazole-4-carboxylate], the melting point is 98 to 100 °C.

On to `COC(=O)NC[C@H]1CN(c2ccc(-c3nc(Cn4cccn4)cs3)c(F)c2)C(=O)O1` [Example 36, Methyl {3-[3-fluoro-4-(4-pyrazol-1-ylmethyl-thiazol-2-yl)-phenyl]-2-oxo-oxazolidin-5(S)-ylmethyl}-carbamate], for which the melting point lay within 142 to 144 °C.

Compound `CC(=O)NC[C@H]1CN(c2ccc(-n3cc(Cn4cccn4)cn3)c(F)c2)C(=O)O1` [Example 20, N-{3-[3-fluoro-4-(4-pyrazol-1-ylmethyl-pyrazol-1-yl)-phenyl]-2-oxo-oxazolidin-5-(S)-ylmethyl}-acetamide] returned a melting point of 186 to 187 °C.

The compound `COC(=S)NC[C@H]1CN(c2ccc(-c3nc(Cn4cncn4)cs3)c(F)c2)C(=O)O1` [Example 52, O-methyl {3-[3-fluoro-4-(4-[1,2,4]triazol-1-ylmethyl-thiazol-2-yl)-phenyl]-2-oxo-oxazolidin-5(S)-ylmethyl}-thiocarbamate] registered a melting point of 189 to 191 °C.

For `CC(=O)NC[C@H]1CN(c2ccc(-n3cnc(Cn4cccn4)c3)c(F)c2)C(=O)O1` (stereo in doubt) [Example 26, N-{3-[3-fluoro-4-(4-pyrazol-1-ylmethyl-imidazol-1-yl)-phenyl]-2-oxo-oxazolidin-5-ylmethyl}-acetamide], the melting point lay within 158 to 160 °C.

`CC(=O)NC[C@H]1CN(c2ccc(-c3nc(Cn4ccnc4)co3)c(F)c2)C(=O)O1` [Example 6, N-{3-[3-fluoro-4-(4-imidazol-1-ylmethyl-oxazol-2-yl)-phenyl]-2-oxo-oxazolidin-5(S)-ylmethyl}-acetamide] came in with a melting point of 198 to 200 °C.

`COC(=S)NC[C@H]1CN(c2ccc(-n3cc(Cn4ccc(C(F)(F)F)n4)nn3)c(F)c2)C(=O)O1` [Example 59]: the melting point lay within 179 to 180 °C.

For the compound `CC(=S)NC[C@H]1CN(c2ccc(-c3csc(Cn4cncn4)n3)c(F)c2)C(=O)O1` [Example 63, N-{3-[3-Fluoro-4-(2[1,2,4]-triazol-1-ylmethyl-thiazol-4-yl)-phenyl]-2-oxo-oxazolidin-5-ylmethyl}-thioacetamide], the melting point fell in the range of 82 to 84 °C.

`CC(=S)NC[C@H]1CN(c2ccc(-c3nc(Cn4cccn4)cs3)c(F)c2)C(=O)O1` [Example 62, N-{3-[3-fluoro-4-(4-pyrazole-1-ylmethyl-thiazol-2-yl)-phenyl]-2-oxo-oxazolidin-5(S)-ylmethyl}-thioacetamide] came in with a melting point of 166 to 168 °C.

Take `COC(=O)NC[C@H]1CN(c2ccc(-n3cc(Cn4cncn4)nn3)c(F)c2)C(=O)O1` [Example 48]: the melting point came to 170 °C.

In the case of `CC(=O)NC[C@H]1CN(c2ccc(-n3cc(Cn4ccc(C(F)(F)F)n4)nn3)c(F)c2)C(=O)O1` [Example 32], the melting point fell in the range of 130 to 140 °C.

Compound `CC(=O)NC[C@H]1CN(c2ccc(-c3csc(Cn4cncn4)n3)c(F)c2)C(=O)O1` (stereo in doubt) [Example 14, N-{3-[3-fluoro-4-(2[1,2,4]triazol-1-ylmethyl-thiazol-4-yl)-phenyl]-2-oxo-oxazolidin-5-ylmethyl}-acetamide] had a melting point of 154 to 156 °C.

`COC(=S)NC[C@H]1CN(c2ccc(-c3nc(Cn4cccn4)co3)c(F)c2)C(=O)O1` [Example 50, O-methyl {3-[3-fluoro-4-(4-pyrazol-1-ylmethyl-oxazol-2-yl)-phenyl]-2-oxo-oxazolidin-5(S)-ylmethyl}-thiocarbamate] gave a melting point of 145 to 147 °C.

For `CC(=O)NC[C@H]1CN(c2ccc(-n3cnc(Cn4cncn4)c3)c(F)c2)C(=O)O1` (stereo in doubt) [Example 26, N-{3-[3-fluoro-4-(4-[1,2,4]triazol-1-ylmethyl-imidazol-1-yl)-phenyl]-2-oxo-oxazolidin-5-ylmethyl}-acetamide], the melting point fell in the range of 171 to 173 °C.

In turn, `CC(=O)NC[C@H]1CN(c2ccc(-c3nc(Cn4ccnc4)cs3)c(F)c2)C(=O)O1` [Example 10, N-{3-[3-fluoro-4-(4-imidazol-1-ylmethyl-thiazol-2-yl)-phenyl]-2-oxo-oxazolidin-5(S)-ylmethyl}-acetamide] yielded a melting point of 192 to 194 °C.

Turning to `COC(=O)NC[C@H]1CN(c2ccc(-c3nc(Cn4cncn4)cs3)c(F)c2)C(=O)O1` [Example 35, Methyl {3-[3-fluoro-4-(4-[1,2,4]triazol-1-ylmethyl-thiazol-2-yl)-phenyl]-2-oxo-oxazolidin-5(S)-ylmethyl}-carbamate], the melting point was in the range of 199 to 201 °C.

Compound `COC(=S)NC[C@H]1CN(c2ccc(-c3nc(Cn4ccnc4)cs3)c(F)c2)C(=O)O1` [Example 51, O-methyl {3-[3-fluoro-4-(4-imidazol-1-ylmethyl-thiazol-2-yl)-phenyl]-2-oxo-oxazolidin-5(S)-ylmethyl}-thiocarbamate] gave a melting point of 169 to 171 °C.

Regarding `COC(=O)NC[C@H]1CN(c2ccc(-c3nc(Cn4cccn4)co3)c(F)c2)C(=O)O1` [Example 34, Methyl {3-[3-fluoro-4-(4-pyrazol-1-ylmethyl-oxazol-2-yl)-phenyl]-2-oxo-oxazolidin-5(S)-ylmethyl}-carbamate], the melting point lay in the range of 170 to 172 °C.

The compound `CC(=O)NC[C@H]1CN(c2ccc(-c3csc(Cn4ccnc4)n3)c(F)c2)C(=O)O1` (stereo in doubt) [Example 16, N-{3-[3-Fluoro-4-(2-imidazol-1-ylmethyl-thiazol-4-yl)-phenyl]-2-oxo-oxazolidin-5-ylmethyl}-acetamide] returned a melting point of 154 to 156 °C.

On to `COC(=O)NC[C@H]1CN(c2ccc(-n3cc(Cn4ccc(C(F)(F)F)n4)nn3)c(F)c2)C(=O)O1` [Example 49], for which the melting point was 129 to 130 °C.

In the case of `COC(=O)NC[C@H]1CN(c2ccc(-n3cnc(Cn4ccnc4)c3)c(F)c2)C(=O)O1` (stereo in doubt) [Example 43, Methyl {3-[3-fluoro-4-(4-imidazol-1-ylmethyl-imidazol-1-yl)-phenyl]-2-oxo-oxazolidin-5-ylmethyl}-carbamate], the melting point lay within 78 to 80 °C.

Compound `CC(=O)NC[C@H]1CN(c2ccc(-c3nc(Cn4cncn4)cs3)c(F)c2)C(=O)O1` [Example 11, N-{3-[3-fluoro-4-(4-[1,2,4]triazol-1-ylmethyl-thiazol-2-yl)-phenyl]-2-oxo-oxazolidin-5(S)-ylmethyl}-acetamide] had a melting point of 196 to 198 °C.

`CC(=S)NC[C@H]1CN(c2ccc(-c3nc(Cn4ccnc4)cs3)c(F)c2)C(=O)O1` [Example 60, N-{3-[3-fluoro-4-(4-imidazol-1-ylmethyl-thiazol-2-yl)-phenyl]-2-oxo-oxazolidin-5(S)-ylmethyl}-thioacetamide]: the melting point lay within 169 to 171 °C.

`CC(=S)NC[C@H]1CN(c2ccc(-n3cnc(Cn4cncn4)c3)c(F)c2)C(=O)O1` [Example 67, N-{3-[3-fluoro-4-(4-[1,2,4]triazol-1-ylmethyl-imidazol-1-yl)-phenyl]-2-oxo-oxazolidin-5-ylmethyl}-thioacetamide] had a melting point of 171 to 173 °C.
